In publication PMC12471299, “Secondary Metabolites of the Marine Sponge-Derived Fungus Aspergillus subramanianii 1901NT-1.40.2 and Their Antimicrobial and Anticancer Activities” (Marine Drugs, 2025):
Where two headings read alike, the source gives them in different places.

What was measured:
[1] = test system: H9c2 cardiomyocytes; assay: Cell viability assay (MTT); type: cell-based, rat; details: for IC50: read-out: Cytotoxicity IC50
From the text: (§1) Rat cardiomyocyte H9c2 cells were kindly provided by Prof. Dr. Gunhild von Amsberg from the Martini-Klinik Prostate Cancer Center, University Hospital Hamburg-Eppendorf, Hamburg, Germany. The human HaCaT keratinocyte cell line was kindly provided by Prof. N. Fusenig (Cancer Research Centre, Heidelberg, Germany). Non-cancerous human breast epithelial MCF-10A cells were kindly provided by Dr. Irina Zhitnyak (N. N. Blokhin National Medical Research Center of Oncology, Moscow, Russia). Human breast cancer MCF-7 HTB-22 and MDA-MB-231 cells were obtained from the ATTC (Manassas, VA, USA).
(§2) H9c2 and HaCaT cells were cultured in DMEM with 10% fetal bovine serum and 1% penicillin/streptomycin (BioloT, St. Petersburg, Russia). MCF-7 and MDA-MB-231 cells were cultured in MEM (BioloT, St. Petersburg, Russia) with 10% fetal bovine serum (FBS) and 1% penicillin/streptomycin (BioloT, St. Petersburg, Russia). MCF 10A cells were cultured in DMEM F12 medium (BioloT, St. Petersburg, Russia) supplemented with 20% FBS, 20 ng/mL hrEGF (Sci-Store, Moscow, Russia), and 1% penicillin/streptomycin (BioloT, St. Petersburg, Russia). All cells were cultured at 37 °C in a humidified atmosphere containing 5% CO2.
(§3) H9c2 cells were seeded at a concentration of 3 × 10^3 cells/well. MCF-10A, MCF-7, and MDA-MB-231 cells were seeded at 5 × 10^3 cells/well, and HaCaT cells were seeded at 1 × 10^4 cells/well. The experiments were initiated after 24 h.
(§4) Compounds at concentrations up to 100 µM were added to the wells for 24h or 48 h, and the viability of the cells was measured using an MTT (3-(4,5-dimethylthiazol-2-yl)-2,5-diphenyltetrazolium bromide) assay, which was performed according to the manufacturer’s instructions (Sigma-Aldrich, Munich, Germany). […] DMSO was used as a control. The results are presented as percentages of the control data.

[2] = test system: MDA-MB-231 breast cancer cells; assay: Cell viability assay (MTT); type: cell-based, human; details: for IC50: read-out: Cytotoxicity IC50
From the text: as §1, §2, §3, §4

[3] = test system: MCF-7 breast cancer cells; assay: Cell viability assay (MTT); type: cell-based, human
From the text: as §1, §2, §3, §4

[4] = test system: MCF-10A breast epithelial cells; assay: Cell viability assay (MTT); type: cell-based, human; details: MCF10A
From the text: as §1, §2, §3, §4

[5] = test system: HaCaT keratinocytes; assay: Cell viability assay (MTT); type: cell-based, human; details: for IC50: read-out: Cytotoxicity IC50
From the text: as §1, §2, §3, §4

[6] = test system: breast cancer MCF-7 cells; details: cited from earlier work
[7] = test system: non-small cell lung cancer NCIH460 cells; details: cited from earlier work
[8] = test system: Escherichia coli VKPM (B-7935); assay: Biofilm formation assay (MTT); type: cell-based
Procedure: (§5) The Gram-positive bacterial Staphylococcus aureus ATCC 21027, Gram-negative bacterial Escherichia coli VKPM (B-7935), and yeast-like fungal Candida albicans KMM 455 strains were fermented on solid medium Mueller Hinton broth with agar (16.0 g/L) in a Petri dish at 37 °C for 24 h. The antimicrobial activity of the compound was tested at concentrations ranging from 100 µM and lower. The effect of the compound on bacterial growth was estimated as described by. Gentamicin and amphotericin B were used as positive controls against S. aureus, E. coli, and C. albicans, and a 1% dimethyl sulfoxide (DMSO) solution in PBS was used as a negative control. The optical density of the bacterial suspension after 18 h was measured at λ = 620 nm. The effect of the compound on biofilm formation for 18 h was tested using MTT reagent (Sigma-Aldrich, St. Louis, MO, USA) in accordance with. The optical density of the obtained solution was measured at λ = 570 nm. A Multiskan FS spectrophotometer (Thermo Scientific Inc., Beverly, MA, USA) was used for both assays. The results were calculated as percentages of the control data and presented as minimal concentrations reduced by 50% of growth or biofilm formation (MIC50).

[9] = test system: Staphylococcus aureus ATCC 21027; assay: Biofilm formation assay (MTT); type: cell-based
Procedure: as §5

[10] = test system: Candida albicans KMM 455; assay: Biofilm formation assay (MTT); type: cell-based
Procedure: as §5

[11] = test system: CNS glioma SF-268 cells; details: cited from earlier work
[12] = test system: Escherichia coli VKPM (B-7935); assay: Antimicrobial assay, growth inhibition (optical density); type: cell-based
Procedure: as §5

[13] = test system: Staphylococcus aureus ATCC 21027; assay: as above; type: cell-based
Procedure: as §5

[14] = test system: Candida albicans KMM 455; assay: as above; type: cell-based; details: C. albicans, 18 h
Procedure: as §5

asterredione [Compound 9]
decrease of viability ([1]; H9c2, 100 µM for 48 h): 38%
cell viability ([1]; H9c2, 24 h, 1.0 µM): 101.1 ± 6.6 % of control
cell viability ([1]; H9c2, 24 h, 10.0 µM): 101.7 ± 3.2 % of control
cell viability ([1]; H9c2, 24 h, 100.0 µM): 73.1 ± 5.1 % of control
IC50 ([1]; H9c2, 24 h): > 100 µM
cell viability ([1]; H9c2, 48 h, 1.0 µM): 90.2 ± 7.1 % of control
cell viability ([1]; H9c2, 48 h, 10.0 µM): 93.0 ± 10.4 % of control
cell viability ([1]; H9c2, 48 h, 100.0 µM): 62.2 ± 10.4 % of control
IC50 ([1]; H9c2, 48 h): > 100 µM
toxicity ([1]; H9c2, at 10 µM): not toxic
cell viability ([2]; MDA-MB-231, 24 h, 1.0 µM): 96.3 ± 3.2 % of control
cell viability ([2]; MDA-MB-231, 24 h, 10.0 µM): 106.3 ± 9.9 % of control
cell viability ([2]; MDA-MB-231, 24 h, 100.0 µM): 82.5 ± 1.3 % of control
IC50 ([2]; MDA-MB-231, 24 h): > 100 µM
cell viability ([2]; MDA-MB-231, 48 h, 1.0 µM): 103.2 ± 0.9 % of control
cell viability ([2]; MDA-MB-231, 48 h, 10.0 µM): 90.5 ± 2.7 % of control
cell viability ([2]; MDA-MB-231, 48 h, 100.0 µM): 52.9 ± 3.4 % of control
IC50 ([2]; MDA-MB-231, 48 h): ≥ 100 µM
IC50 ([3]; MCF-7, 24 h, read-out: Cytotoxicity IC50): 51.3 ± 2.6 µM
cell viability ([3]; MCF-7, 48 h, 1.0 µM): 97.8 ± 1.1 % of control
cell viability ([3]; MCF-7, 48 h, 10.0 µM): 78.6 ± 7.6 % of control
cell viability ([3]; MCF-7, 48 h, 100.0 µM): 21.2 ± 6.6 % of control
IC50 ([3]; MCF-7, 48 h, read-out: Cytotoxicity IC50): 55.1 ± 3.9 µM
IC50 ([3]; MCF-7, time not stated, read-out: IC50, viability): ~50 µM
cell viability ([4]; 24 h, 1.0 µM): 100.7 ± 0.9 % of control
cell viability ([4]; 24 h, 10.0 µM): 97.5 ± 3.5 % of control
cell viability ([4]; 24 h, 100.0 µM): 66.3 ± 3.6 % of control
IC50 ([4]; 24 h, read-out: Cytotoxicity IC50): > 100 µM
cell viability ([4]; 48 h, 1.0 µM): 96.7 ± 5.1 % of control
cell viability ([4]; 48 h, 10.0 µM): 79.4 ± 4.3 % of control
cell viability ([4]; 48 h, 100.0 µM): 61.5 ± 1.9 % of control
IC50 ([4]; 48 h, read-out: Cytotoxicity IC50): > 100 µM
IC50 ([4]; time not stated, read-out: half-maximal concentration (IC50), viability): > 100 µM
decrease of viability ([5]; 100 µM for 48 h): 23%
cell viability ([5]; 24 h, 1.0 µM): 88.7 ± 3.0 % of control
cell viability ([5]; 24 h, 10.0 µM): 79.2 ± 2.1 % of control
cell viability ([5]; 24 h, 100.0 µM): 62.0 ± 6.9 % of control
IC50 ([5]; 24 h): > 100 µM
cell viability ([5]; 48 h, 1.0 µM): 99.5 ± 2.3 % of control
cell viability ([5]; 48 h, 10.0 µM): 92.6 ± 11.2 % of control
cell viability ([5]; 48 h, 100.0 µM): 77.1 ± 1.5 % of control
IC50 ([5]; 48 h): > 100 µM
toxicity ([5]; at 10 µM): not toxic
cytotoxic activity [6]: moderate cytotoxic activity
cytotoxic activity [7]: moderate cytotoxic activity
Biofilm formation, MIC50 ([8]; E. coli, 18 h): >100 µM
effect on E. coli biofilm formation ([8]; at / up to 100 µM): did not affect
Biofilm formation, MIC50 ([9]; S. aureus, 18 h): >100 µM
effect on S. aureus biofilm formation ([9]; at / up to 100 µM): did not affect
Biofilm formation, MIC50 ([10]; C. albicans, 18 h): >100 µM
prevention of C. albicans biofilm formation ([10]; at 100 µM): 41.18 ± 4.91%
cytotoxic activity [11]: moderate cytotoxic activity
MIC50 ([12]; E. coli, 18 h): >100 µM
effect on E. coli growth ([12]; at / up to 100 µM): did not affect
MIC50 ([13]; S. aureus, 18 h): >100 µM
effect on S. aureus growth ([13]; at / up to 100 µM): did not affect
MIC50 [14]: >100 µM
